Data: paper PMC4482662, “Engineered Trehalose Permeable to Mammalian Cells” (PLoS ONE, 2015)
One block for each compound: values may come before it.

Key:
rat hepatocytes [1] = experiment: Uptake and intracellular deacetylation of acetylated trehalose in cultured rat hepatocytes (trehalase assay kit, total after NaOH hydrolysis); type: in vitro ADME; conditions: 30 mM incubation
Excerpt: Rat hepatocytes were provided by the Cell Resource Center (CRC) at the Center for Engineering in Medicine at Massachusetts General Hospital. Briefly, hepatocytes were obtained from female Lewis rats using a two-step collagenase protocol. Two or three month old rat (Charles River Laboratories, Wilmington, MA) weighing 180–200 g were used as hepatocyte source and were maintained in accordance with National Research Council guidelines. Experimental protocols in practice at CRC for the use of hepatocytes in this study were approved by the subcommittee on Research Animal Care, Massachusetts General Hospital. Using a modification of the two-step collagenase perfusion method, which involved purification of cell suspension by means of centrifugation over Percoll, approximately 200 million hepatocytes per rat liver with 85–95% viability were routinely obtained, as evaluated by Trypan blue exclusion. Hepatocytes were kept on ice and were plated within 1 h of isolation.
For trehalose loading experiments, 6-well plates were treated with 25μg/mL fibronectin for 1 h prior to plating the hepatocytes, at which point the wells were washed with PBS and the hepatocytes were seeded at 1.2–1.3×10^6 cells/well. The cells were allowed 24–48 h to attach and spread in a 10% (v/v) CO2 incubator at 37°C before they were incubated with acetylated variants of trehalose. […]
The cell lysates were analyzed for protein content using a Bradford Commassie assay for cell count approximation. Trehalose content of cell lysates were measured using a trehalose assay kit following the manufacturer’s protocol. […] This solution was analyzed for total trehalose content against the trehalose controls prepared in a similar fashion, and the concentration was adjusted for the dilution due to addition of NaOH and HCl. To estimate the number of cells, protein content of the cell lysate was assessed using the Pierce^TM Coomassie Plus (Bradford) assay (Life Technologies, Grand Island, NY, USA). […]

rat hepatocytes [2] = experiment: Overall morphology of hepatocytes after loading; type: cell-based; conditions: post-loading incubation after 15 and 30 mM for 6 h
Method: We next examined the long-term functional activity of hepatocytes after incubation with 6-O-Ac-Tre. The cells were incubated for 14 days following the incubation with 15 and 30 mM 6-O-Ac-Tre for 6 h (Fig 5). During the post-loading incubation, the cells were examined for overall morphology, viability and the albumin secretion. Mitochondrial membrane potential (ΔΨ) was also examined.

[3] = Diffusion-reaction model fitted to the uptake data (membrane permeability and esterase kinetics); type: in vitro ADME, rat; conditions: female, Lewis, rat, not told, pH 7.1, read-out: P, membrane permeability
Excerpt: (§1) We assume a lumped passive diffusion model for (n)-O-Ac-Tre across the cell membrane, the rate of change in the intracellular concentration of variants of (n)-O-Ac-Tre, C n, may be expressed using Fick’s first law: d[Cn]/dt=−PnA/V([Cn*]−[Cn]), (1) where P n is the membrane permeability of (n)-O-Ac-Tre. Parameters A and V are cell surface area available for transport and cell volume, respectively. Cn* is the extracellular concentration of (n)-O-Ac-Tre, which is equal to zero for all n<6. For the intracellular de-acetylation of (n)-O-Ac-Tre to (n-1)-O-Ac-Tre by esterase activity, we assume enzymatic reaction kinetics as the following: (n)-O-Ac-Tre+E→knf←knr[(n)-O-Ac-Tre+E]→kncat(n-1)-O-Ac-Tre+E where knf,knr and kncat are the kinetic reaction constants for (n)-O-Ac-Tre variants ranging from 6 to 0. We may assume that the process of de-acetylation of 6-O-Ac-Tre is a series of parallel first order enzymatic reactions competing for enzyme molecules (Fig 2).
(§2) Based on the proposed reaction model, the rate of change in the concentration of (n)-O-Ac-Tre ([C n]) and the intermediate ([C n E]) can be expressed as: d[Cn]/dt=−knf[Cn][En]+knr[CnE]+kn+1cat[Cn+1E]−PnA/V([Cn]−[Cn*]) (2) d[CnE]/dt=knf[Cn][En]−knr[CnE]−kncat[CnE] (3)
(§3) In the above set of equations, [E n] is the fraction of the free enzyme that would interact with [C n]. Assuming quasi-steady-state condition, the left-hand-side of Eq (3) is zero. […] [CnE]=knf[Cn][En]/(knr+kncat) (4)
(§4) We may assume that the probablity of the free enzyme interaction with variants of 6-O-Ac-Tre is directly proportional to respective mole fractions, x n: [En]=[E][Cn]/∑n[Cn]=[E]xn (5) where [E] is the concentration of the free enzyme, which can also be expressed as [E] = [E 0]−∑[C n E]. By replacing Eq (5) in Eq (4), summation over n, and rearranging, we get: [E]=[E0]/1+∑([Cn][xn]/Knm) (6) where Knm=knr+kncat/knf is equivalent of the Michaelis-Menten constant for the enzymatic break-down of (n)-O-Ac-Tre variant. After substituting Eq (6) and Eq (4) in Eq (2) and rearranging, we can propose the rate of change in the concentration of (n)-O-Ac-Tre as the following: d[Cn]/dt=−Vnmax[Cn]xn/Knm(1+∑([Cn][xn]/Knm))+Vn+1max[Cn+1]xn+1/Kn+1m(1+∑([Cn][xn]/Knm))+PnA/V([Cn*]−[Cn]) (7) where Vnmax=kncat[E0] . For trehalose and 6-O-Ac-Tre, the first and second terms on the rights hand side of […] are omitted, respectively. Eq (7) is the general form of the Michaelis-Menten formulation of a multi-step enzymatic reaction for this specific case.
(§5) The permeability coefficient P n, and the coefficients Vnmax and K n in the above list of equations are unknown since no data is available in the literature on these novel molecules to be used in the model. Therefore, the values of these parameters were obtained by fitting the model to the data using a custom-written code in MATLAB (The MathWorks, Natick, MA, USA).
(§6) The proposed diffusion-reaction model in the Methods section allows calculating the permeability coefficients for 6-O-Ac-Tre by fitting the model to the experimental results for 6-O-Ac-Tre. First, we made a few simplifying assumptions. […] We also assumed that the enzymatic kinetics of the de-acetylation process were similar for all the steps of hydrolysis of (n)-O-Ac-Tre to (n-1)-O-Ac-Tre. Therefore, Knm=K^m and Vnmax=V^max for n≤6.
(§7) The model was fit to 3 separate data sets obtained from incubation of cells with 5, 15 and 30 mM 6-O-Ac-Tre, each obtained consisting out of total trehalose and total (n)-O-Ac-Tre variants concentration data (Fig 4, also see S1 Fig). The model was fit to the data up to 9 h incubation. The results are plotted in Fig 4. Using only 3 fitting parameters, the model fit all the 6 data sets very closely with nonlinear regression coefficient R^2 values >0.92. By increasing the incubation concentration from 5 to 30 mM, the value of permeability increased from 2.2×10^−9 to 8.0×10^−9 m s^-1 resulting in an average of 5.0±3.4×10^−9 m s^-1.

rat hepatocytes [4] = experiment: as above; type: in vitro ADME
Excerpt: as §1, §2, §3, §4, §5, §6, §7

rat hepatocytes [5] = experiment: Mitochondrial membrane potential (JC-1, Mito-Tracker Red) after loading; type: cell-based; conditions: after 6 h incubation
Method: To determine mitochondrial function after incubation with acetylated trehalose, we used JC-1 for membrane potential and Mito-Tracker Red CMRox for imaging following the manufacturers’ protocols. The hepatocytes were seeded in fibronectin-coated plates and were allowed to attach and spread for 24–48 h. Then, the cells were incubated with 30 mM 6-O-Ac-Tre and 25 mM HEPES for 6 h, after which the wells were washed with excess medium and the cells incubated for 24 h before the assay. Immediately upon the start of incubation with staining agents, the plates were placed in the fluorescent plate reader and the fluorescence was read for 30 min at 579/599 nm excitation/emission wavelengths for Mito-Tracker and at 485 nm excitation and 530/590 nm emission wavelengths for the green and red channels respectively of JC-1. For imaging mitochondria, the hepatocytes were cultured on collagen-coated glass cover slips for 48 h, and were stained with Mito-Tracker Red 24 h after the incubation with 6-O-Ac-Tre for 6 h. The control group was prepared without incubation with 6-O-Ac-Tre. The cover slips were then washed with excess PBS and imaged using a Zeiss microscope with fluorescence capability.

rat hepatocytes [6] = experiment: MTT cell viability assay after loading; type: cell-based; conditions: 48 h after loading with 30 mM
Method: To evaluate cell viability after incubation with acetylated trehalose compared to control group, […] 0.5 mg/ml. The cells were incubated with the MTT reagent for 2 hrs. At the end of incubation, the MTT reagent was removed and the cells were incubated with DMSO for 10 min to dissolve all crystallized formazan. Then, the concentration of formazan was assayed by reading the absorption values of the DMSO solution in a spectrophotometric plate reader at 560 nm.

rat hepatocytes [7] = experiment: Hepatocyte albumin secretion ELISA, 14-day follow-up after loading; type: cell-based; set-up: dose or concentration left out as unconfirmed
Method: The hepatocytes were seeded at 0.6×10^6 cell/well on the collagen gel in 12-well plates. Collagen gel was formed by the addition of 200 μL of collagen solution to each well and incubation for 20 min at 37°C. The cells were allowed to attach and spread at least 24 h before the experiments. […] After the collagen solution solidified, 0.5 mL of medium was added per well and the plate was incubated at 10% CO2 and 37°C. Every 24 h for 14 days, the medium from each well was separately collected and 0.5 mL fresh medium was added to each well. The collected samples were stored at -80°C freezer until analyzed.
Albumin secretion was assayed following an ELISA protocol developed in-house. Briefly, 96-well high-binding ELISA plates were coated with 5 μg/well rat albumin in 100 μL PBS and incubated overnight at 4 °C. Coated plates were washed with PBS-Tween (0.05%) at least 3 times and 50 μL of the media or standards were added to wells in the plate. Albumin antibody was diluted 1:10000 in PBS-tween and 50 μL was added to each well and incubated overnight at 4 °C. At the end of incubation, the plates were washed with PBS-0.05% Tween at least 3 times. A substrate solution of o-phenylenediamine dihydro-chloride (OPD, 400 μg/mL) and 4 μM H2O2 was prepared in a citric acid buffer. […] Reaction was stopped by addition of 50 μL 8N sulfuric acid and the difference in absorbance was measured at 490 nm.

Water solubility = type: physicochemical

Compound: CC(=O)OC1C(OC2OC(CO)C(O)C(OC(C)=O)C2OC(C)=O)OC(CO)C(O)C1OC(C)=O (stereo not shown) [4-O-Ac-Tre, trehalose tetraacetate]
- enhancement of membrane permeability over regular trehalose (rat hepatocytes [1]): did not observe a significant enhancement of the permeability

- overall morphology and lipid droplet formation versus control (rat hepatocytes [2]): minimal changes
- Papp at 9 h ([3]; Average±S.D. over 5, 15, 30 mM): 0.5 ×10⁻⁶ cm/s
- Papp at 9 h, 5 mM ([3]; C* 5 mM, fit up to 9 h): 0.22 ×10⁻⁶ cm/s
- Papp at 9 h, 15 mM ([3]; C* 15 mM, fit up to 9 h): 0.39 ×10⁻⁶ cm/s
- Papp at 9 h, 30 mM ([3]; C* 30 mM, fit up to 9 h): 0.8 ×10⁻⁶ cm/s
- K^m of intracellular esterase deacetylation (rat hepatocytes [4]; Average±S.D. over 5, 15, 30 mM): 0.097 ± 0.006 mM
- V^max of intracellular esterase deacetylation (rat hepatocytes [4]; Average±S.D. over 5, 15, 30 mM): 0.0167 ± 0.01 mM/s
- K^m of intracellular esterase deacetylation (rat hepatocytes [4]; C* 5 mM): 0.09 mM
- V^max of intracellular esterase deacetylation (rat hepatocytes [4]; C* 5 mM): 0.007 mM/s
- K^m of intracellular esterase deacetylation (rat hepatocytes [4]; C* 15 mM): 0.1 mM
- V^max of intracellular esterase deacetylation (rat hepatocytes [4]; C* 15 mM): 0.016 mM/s
- K^m of intracellular esterase deacetylation (rat hepatocytes [4]; C* 30 mM): 0.1 mM
- V^max of intracellular esterase deacetylation (rat hepatocytes [4]; C* 30 mM): 0.027 mM/s
- K m (rat hepatocytes [4]; constant from 5 to 30 mM incubation): ~ 0.1 mM
- average conversion rate by esterases (rat hepatocytes [4]; hydrolysis of acetylated trehalose): 60 ± 36 mM/h
- mitochondrial ΔΨ versus control (Mito-Tracker Red, JC-1 ratio) (rat hepatocytes [5]): no significant difference
- uptake compared with trehalose, 2-Act-Tre and 4-Act-Tre (rat hepatocytes [1]): at least one order of magnitude higher
Compound: CC(=O)OC1C(CO)OC(OC2OC(CO)C(OC(C)=O)C(OC(C)=O)C2OC(C)=O)C(OC(C)=O)C1OC(C)=O (stereo not shown) [6-O-Ac-Tre, trehalose hexaacetate]
- MTT viability versus control (rat hepatocytes [6]): no significant difference
- albumin secretion versus control (rat hepatocytes [7]): eventually increased to similar levels as the control group within 10 days

- water solubility (Water solubility): not water soluble
Compound: CC(=O)OCC1OC(OC2OC(COC(C)=O)C(OC(C)=O)C(OC(C)=O)C2OC(C)=O)C(OC(C)=O)C(OC(C)=O)C1OC(C)=O (stereo not shown) [8-O-Ac-Tre]

Compound: CC(=O)OCC1OC(OC2OC(COC(C)=O)C(O)C(O)C2O)C(O)C(O)C1O (stereo not shown) [trehalose diacetate]
- enhancement of membrane permeability over regular trehalose (rat hepatocytes [1]): did not observe a significant enhancement of the permeability
